Drawing on patent publication US7667052B2 (Eisai R&D Management Co., Ltd., priority 2003, dated 2010), this text covers Solubility and IC50 for 37 molecules.

Where two headings read alike, the source gives them in different places.

Data set [1] is described as follows: Solubility (physico-chemical properties of the 11107 analogues). Conditions: in dimethylsulfoxide, pyridine, methanol, acetone and water.
The subject of data set [2] is transcription from VEGF promoter. As to the kind of experiment: VEGF transcription-suppressing activity, VEGF-PLAP reporter in U251/1-8 cell. It is filed as cell-based. Conditions: Homo sapiens, U-251, U251/1-8 cell, PLAP activity, low oxygen 18 hours. The method in brief:
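U251 glioma clone stably carrying a ~2.3 kb human VEGF promoter–secreted PLAP reporter, 4×10^4 cells/well, exposed to 3-fold dilutions of compound for 18 h under low oxygen. Supernatant PLAP read by chemiluminescence at pH 10.0; IC50 = 50% suppression, normoxia 0%, hypoxia 100%.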

Setting [3] is: read-out: IC50 values of VEGF transcription-suppressing activity (range given).
The mark [4] stands for this setting: read-out: VEGF transcription suppressing activity (IC50: nM).

For `CCC(=O)C(C)C1OC1CC(C)/C=C/C=C(\C)C1OC(=O)CC(O)CCC(C)(O)C(O)/C=C/C1C` (stereo not drawn) [11107AC], the Solubility result in data set [1] is “soluble in dimethylsulfoxide, pyridine, methanol and acetone, and slightly soluble in water”.

With `CCC(O)C(C)C(O)C(O)CC(C)/C=C/C=C(\C)C1OC(=O)CC(O)/C=C/C(C)(O)C(OC(C)=O)/C=C/C1C` (stereo not drawn) [11107BA], in data set [1], the Solubility entry is “soluble in dimethylsulfoxide, pyridine, methanol and acetone, and slightly soluble in water”.

Turning to `CC(=O)OC1/C=C/C(C)C(/C(C)=C/C=C/C(C)O)OC(=O)CC(O)CCC1C` (stereo not drawn) [11107AR], the Solubility entry in data set [1] was “soluble in dimethylsulfoxide, pyridine, methanol and acetone, and slightly soluble in water”.

Take `CCC(O)C(C)C1OC1CC(C)/C=C/C=C(\C)C1OC(=O)CC(O)CC(=O)C(C)(O)C(OC(C)=O)/C=C/C1C` (stereo not drawn) [11107BH]: the IC50 (in general, the point on the concentration scale where inhibition reaches its midpoint) in data set [2] (setting [3]) was 1 to 100 nM; in data set [2] (setting [4]), 2.6 nM. The Solubility entry in data set [1] is “soluble in dimethylsulfoxide, pyridine, methanol and acetone, and slightly soluble in water”.

As to `CCC(O)C(C)C1OC1C(O)C(C)/C=C/C=C(\C)C1OC(=O)CC(O)/C=C/C(C)(O)C(OC(C)=O)/C=C/C1C` (stereo not drawn) [11107AX], the half-maximal inhibitory concentration (IC50) in data set [2] (setting [3]) lay in the range of 1 to 100 nM. Further, the Solubility entry in data set [1] is “soluble in dimethylsulfoxide, pyridine, methanol and acetone, and slightly soluble in water”.

For `CCC(=O)C(C)C1OC1CC(C)/C=C/C=C(\C)C1OC(=O)CC(O)/C=C/C(C)(O)C(OC(C)=O)/C=C/C1C` (stereo not drawn) [11107AL], the IC50 in data set [2] (setting [3]) lay within 1 to 100 nM. Also, in data set [1], the Solubility result was “soluble in dimethylsulfoxide, pyridine, methanol and acetone, and slightly soluble in water”.

On to `CCC(O)C(O)CC(C)/C=C/C=C(\C)C1OC(=O)CC(O)CCC(C)(O)C(OC(C)=O)/C=C/C1C` (stereo not drawn) [11107AF], for which the Solubility entry in data set [1] is “soluble in dimethylsulfoxide, pyridine, methanol and acetone, and slightly soluble in water”.

`CCC(O)C(C)C1OC1CC(C)/C=C/C=C(\C)C1OC(=O)CC(O)CC(O)C(C)(O)C(OC(C)=O)/C=C/C1C` (stereo not drawn) [11107K]: the IC50 in data set [2] (setting [3]) is 1 to 100 nM; in data set [2] (setting [4]) it was 2.7 nM. Besides, the Solubility result in data set [1] is “soluble in dimethylsulfoxide, pyridine, methanol and acetone, and slightly soluble in water”.

Regarding `CCC(O)C(C)C1OC1CC/C=C/C=C(\C)C1OC(=O)CC(O)CCC(C)(O)C(OC(C)=O)/C=C/C1C` (stereo not drawn) [11107U], in data set [2] (setting [3]), the IC50 fell in the range of 1 to 100 nM. Besides, in data set [1], the Solubility result was “soluble in dimethylsulfoxide, pyridine, methanol and acetone, and slightly soluble in water”.

As for `CCC(=O)/C(C)=C/C(O)CC(C)/C=C/C=C(\C)C1OC(=O)CC(O)CCC(C)(O)C(OC(C)=O)/C=C/C1C` (stereo not drawn) [11107AA], the Solubility result in data set [1] is “soluble in dimethylsulfoxide, pyridine, methanol and acetone, and slightly soluble in water”.

As to `CCC(O)C(C)C(O)C(O)CC(C)/C=C/C=C(\C)C1OC(=O)CC(O)CCC(C)(O)C(OC(C)=O)/C=C/C1C` (stereo not drawn) [11107O], in data set [1], the Solubility result was “soluble in dimethylsulfoxide, pyridine, methanol and acetone, and slightly soluble in water”.

As for `CCC1OC1CC(C)(O)/C=C/C=C(\C)C1OC(=O)CC(O)CCC(C)(O)C(OC(C)=O)/C=C/C1C` (stereo not drawn) [11107BB], the Solubility result in data set [1] was “soluble in dimethylsulfoxide, pyridine, methanol and acetone, and slightly soluble in water”.

As for `CCC(O)C(C)(O)/C=C/CC(C)/C=C/C1OC(=O)CC(O)CCC(C)(O)C(OC(C)=O)/C=C/C1C` (stereo not drawn) [11107BC], the Solubility result in data set [1] is “soluble in dimethylsulfoxide, pyridine, methanol and acetone, and slightly soluble in water”.

For the molecule `CCC(O)C(C)C1OC1CC(C)/C=C/C=C/C1OC(=O)CC(O)CCC(C)(O)C(OC(C)=O)/C=C/C1C` (stereo not drawn) [11107W], in data set [2] (setting [3]), the IC50 was 1 to 100 nM. Besides, the Solubility entry in data set [1] was “soluble in dimethylsulfoxide, pyridine, methanol and acetone, and slightly soluble in water”.

`CCC(O)C(C)C1OC1CC(C)/C=C/C=C(\C)C1OC(=O)CC(O)CCC(C)(O)C(O)/C=C/C1C` (stereo not drawn) [11107A]: the Solubility result in data set [1] was “soluble in dimethylsulfoxide, pyridine, methanol and acetone, and slightly soluble in water”.

Turning to `CCC(O)C(C)C1OC1CC(C)/C=C/C=C(\C)C1OC(=O)CC(O)CCC2(CO2)C(OC(C)=O)/C=C/C1C` (stereo not drawn) [11107AM], the IC50 in data set [2] (setting [3]) is 1 to 100 nM; in data set [2] (setting [4]), 2.6 nM. Further, the Solubility entry in data set [1] is “soluble in dimethylsulfoxide, pyridine, methanol and acetone, and slightly soluble in water”.

As to `CCC(O)C(C)C1OC1CC(C)/C=C/C=C(\C)C1OC(=O)CC(O)CCC(C)(O)C(OC(C)=O)/C=C/C1C` (stereo not drawn) [11107AD], in data set [1], the Solubility entry was “soluble in dimethylsulfoxide, pyridine, methanol and acetone, and slightly soluble in water”.

`CCC(=O)C(C)(O)/C=C/CC(C)/C=C/C1OC(=O)CC(O)CCC(C)(O)C(OC(C)=O)/C=C/C1C` (stereo not drawn) [11107AH]: the Solubility entry in data set [1] is “soluble in dimethylsulfoxide, pyridine, methanol and acetone, and slightly soluble in water”.

Regarding `CCC(=O)C(C)C1OC1CC(C)(O)/C=C/C=C(\C)C1OC(=O)CC(O)CCC(C)(O)C(OC(C)=O)/C=C/C1C` (stereo not drawn) [11107AV], the Solubility result in data set [1] is “soluble in dimethylsulfoxide, pyridine, methanol and acetone, and slightly soluble in water”.

As for `CCC(O)C(C)C1OC1CC(C)/C=C/C=C/C1OC(=O)CC(O)CCC(C)(O)C(O)/C=C/C1C` (stereo not drawn) [11107BD], the Solubility result in data set [1] is “soluble in dimethylsulfoxide, pyridine, methanol and acetone, and slightly soluble in water”.

With `CC(=O)OC1/C=C/C(C)C(/C(C)=C/C=C/C(C)C/C=C/C(C)C(O)C(C)O)OC(=O)CC(O)CCC1(C)O` (stereo not drawn) [11107AJ], the IC50 in data set [2] (setting [3]) was 1 to 100 nM. Further, the Solubility result in data set [1] is “soluble in dimethylsulfoxide, pyridine, methanol and acetone, and slightly soluble in water”.

Turning to `CCC1OC(CC(C)/C=C/C=C(\C)C2OC(=O)CC(O)CCC(C)(O)C(OC(C)=O)/C=C/C2C)C(O)C1(C)O` (stereo not drawn) [11107AU], the Solubility entry in data set [1] is “soluble in dimethylsulfoxide, pyridine, methanol and acetone, and slightly soluble in water”.

`CCC(O)C(C)C1OC1C(O)C(C)/C=C/C=C(\C)C1OC(=O)CC(O)CCC(C)(O)C(OC(C)=O)/C=C/C1C` (stereo not drawn) [11107BF]: the Solubility entry in data set [1] was “soluble in dimethylsulfoxide, pyridine, methanol and acetone, and slightly soluble in water”.

`CCC(O)C(C)C1OC1CC(C)/C=C/C=C(\C)C1OC(=O)CC(O)CCC2(CO2)C(O)/C=C/C1C` (stereo not drawn) [11107AO]: in data set [1], the Solubility result was “soluble in dimethylsulfoxide, pyridine, methanol and acetone, and slightly soluble in water”.

Regarding `CCC(O)C(C)/C=C/C=C(\C)C1OC(=O)CC(O)CCC(C)C(OC(C)=O)/C=C/C1C` (stereo not drawn) [11107BJ], in data set [1], the Solubility entry was “soluble in dimethylsulfoxide, pyridine, methanol and acetone, and slightly soluble in water”.

`CCC(O)C(C)C1OC1CC(C)/C=C/C=C(\C)C1OC(=O)C(C)C(O)CCC(C)(O)C(OC(C)=O)/C=C/C1C` (stereo not drawn) [11107X]: in data set [1], the Solubility result is “soluble in dimethylsulfoxide, pyridine, methanol and acetone, and slightly soluble in water”.

Turning to `CC(=O)OC1/C=C/C(C)C(/C(C)=C/C=C/C(C)CC(O)C2OC(C)C(O)C2C)OC(=O)CC(O)CCC1(C)O` (stereo not drawn) [11107AS], the Solubility entry in data set [1] is “soluble in dimethylsulfoxide, pyridine, methanol and acetone, and slightly soluble in water”.

For `CCC(O)C(C)C1OC1CC(C)/C=C/C=C(\C)C1OC(=O)C(C)C(O)CCC(C)(O)C(O)/C=C/C1C` (stereo not drawn) [11107AI], the Solubility entry in data set [1] is “soluble in dimethylsulfoxide, pyridine, methanol and acetone, and slightly soluble in water”.

Regarding `CCC(O)C(C)C(O)C(O)CC(C)CC/C=C(\C)C1OC(=O)CC(O)CCC(C)(O)C(OC(C)=O)/C=C/C1C` (stereo not drawn) [11107AG], the Solubility entry in data set [1] is “soluble in dimethylsulfoxide, pyridine, methanol and acetone, and slightly soluble in water”.

With `CC(=O)OC1/C=C/C(C)C(/C=C/C(C)C/C=C/C(C)O)OC(=O)CC(O)CCC1(C)O` (stereo not drawn) [11107BE], in data set [1], the Solubility entry was “soluble in dimethylsulfoxide, pyridine, methanol and acetone, and slightly soluble in water”.

In the case of `CCC(O)C(C)C1OC1CC(C)/C=C/C=C(\C)C1OC(=O)CC(O)CCC(C)(O)CCC(=O)C1C` (stereo not drawn) [11107V], in data set [1], the Solubility result is “soluble in dimethylsulfoxide, pyridine, methanol and acetone, and slightly soluble in water”.

For `CCC(O)C(C)C1OC1CC(C)/C=C/C=C(\C)C1OC(=O)CC(O)/C=C/C(C)(O)C(O)/C=C/C1C` (stereo not drawn) [11107S], in data set [1], the Solubility entry is “soluble in dimethylsulfoxide, pyridine, methanol and acetone, and slightly soluble in water”.

`CCC(O)C(C)C1OC1CC(C)/C=C/C=C(\C)C1OC(=O)CC(O)CCCC(O)/C=C/C1C` (stereo not drawn) [11107AK]: in data set [1], the Solubility entry was “soluble in dimethylsulfoxide, pyridine, methanol and acetone, and slightly soluble in water”.

In the case of `CCC(O)C(C)C1OC1CC(C)/C=C/C=C(\C)C1OC(=O)CC(O)CCC(C)(O)C(OC(=O)NCCCN2CCN(C)CC2)/C=C/C1C` (stereo not drawn) [B78, (8E,12E,14E)-3,6,21-Trihydroxy-6,10,12,16,20-pentamethyl-7-N-(3-(4-methylpiperazin-1-yl)propyl)carbamoyloxy-18,19-epoxytricosa-8,12,14-trien-11-olide], the IC50 in data set [2] (setting [3]) was in the range of 0.5 to 100 nM.

As to `CCC(O)C(C)C1OC1CC(C)/C=C/C=C(\C)C1OC(=O)CC(O)CCC(C)(O)C(OC(=O)N2CCC(O)CC2)/C=C/C1C` (stereo not drawn) [B48, (8E,12E,14E)-3,6,21-Trihydroxy-7-((4-hydroxypiperidin-1-yl)carbonyl)oxy-6,10,12,16,20-pentamethyl-18,19-epoxytricosa-8,12,14-trien-11-olide], the 50% inhibitory concentration (IC50) in data set [2] (setting [3]) fell in the range of 0.5 to 100 nM.

Take `CCC(O)C(C)C1OC1CC(C)/C=C/C=C(\C)C1OC(=O)CC(O)CCC(C)(O)C(OC(=O)N(C)C)/C=C/C1C` (stereo not drawn) [B46, (8E,12E,14E)-3,6,21-Trihydroxy-6,10,12,16,20-pentamethyl-7-N,N-dimethylcarbamoyloxy-18,19-epoxytricosa-8,12,14-trien-11-olide]: the IC50 in data set [2] (setting [3]) was in the range of 0.5 to 100 nM.

Turning to `CCC(OC(N)=O)C(C)C1OC1CC(C)/C=C/C=C(\C)C1OC(=O)CC(OC(N)=O)CCC(C)(O)C(OC(C)=O)/C=C/C1C` (stereo not drawn) [B33-1, (8E,12E,14E)-7-Acetoxy-3,21-dicarbamoyloxy-6-hydroxy-6,10,12,16,20-pentamethyl-18,19-epoxytricosa-8,12,14-trien-11-olide], in data set [2] (setting [3]), the IC50 was in the range of 0.5 to 100 nM.
